Experimental data from ChEMBL document CHEMBL3525953, “In vitro cytochrome P450-mediated metabolism of exemestane” (Drug Metab Dispos, 2011).

Legend:
Cytochrome P450 1A1 = target: T1, Cytochrome P450 1A1 (Homo sapiens, UniProt P04798); test: Drug metabolism assessed as human recombinant CYP1A1-mediated 17-hydroexemestane formation rate per pmol of enzyme at 10 uM after 10 mins; type: ADME
T1 sequence (P04798 whole entry): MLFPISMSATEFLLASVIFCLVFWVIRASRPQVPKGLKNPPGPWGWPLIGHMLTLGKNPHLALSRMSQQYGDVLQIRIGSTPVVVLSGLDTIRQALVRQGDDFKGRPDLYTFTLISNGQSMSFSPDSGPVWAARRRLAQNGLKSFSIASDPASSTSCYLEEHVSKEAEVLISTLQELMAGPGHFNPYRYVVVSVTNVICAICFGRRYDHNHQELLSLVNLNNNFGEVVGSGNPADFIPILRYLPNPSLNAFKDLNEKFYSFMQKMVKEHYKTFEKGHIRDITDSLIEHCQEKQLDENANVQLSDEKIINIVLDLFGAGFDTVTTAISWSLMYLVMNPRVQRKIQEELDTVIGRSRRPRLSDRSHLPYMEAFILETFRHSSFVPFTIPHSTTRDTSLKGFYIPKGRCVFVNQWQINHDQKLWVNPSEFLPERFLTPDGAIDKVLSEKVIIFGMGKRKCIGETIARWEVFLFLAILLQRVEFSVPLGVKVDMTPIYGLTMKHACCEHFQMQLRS

Aromatase = target: T2, Aromatase (Homo sapiens, UniProt P11511); test: Drug metabolism assessed as human recombinant CYP19-mediated 17-hydroexemestane formation at 10 uM after 10 mins by Michaelis-Menten saturation curve analysis; type: ADME; details: recombinant enzyme
T2 sequence (P11511 whole entry): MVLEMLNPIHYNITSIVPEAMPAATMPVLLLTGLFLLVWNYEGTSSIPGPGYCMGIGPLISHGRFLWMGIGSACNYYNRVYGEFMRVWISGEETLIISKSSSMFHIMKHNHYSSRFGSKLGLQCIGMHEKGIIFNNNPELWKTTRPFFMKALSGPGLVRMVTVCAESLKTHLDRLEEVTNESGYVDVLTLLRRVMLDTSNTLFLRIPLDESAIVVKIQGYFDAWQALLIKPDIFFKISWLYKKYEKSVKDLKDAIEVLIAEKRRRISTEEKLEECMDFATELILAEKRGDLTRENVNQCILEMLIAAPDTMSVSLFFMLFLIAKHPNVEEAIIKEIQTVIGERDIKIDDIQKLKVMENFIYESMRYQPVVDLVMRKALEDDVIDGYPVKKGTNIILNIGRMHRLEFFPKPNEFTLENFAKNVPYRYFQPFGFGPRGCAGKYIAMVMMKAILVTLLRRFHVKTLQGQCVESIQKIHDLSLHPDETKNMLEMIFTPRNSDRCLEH

For C=C1C[C@@H]2[C@H](CC[C@]3(C)C(O)CC[C@@H]23)[C@@]2(C)C=CC(=O)C=C12 (some centres not stated), the Drug metabolism (Cytochrome P450 1A1) was 1.09 pmol/min and the Drug metabolism (Aromatase) was “metabolite_detected”.
